Test results reported in US11229623B2 (GlaxoSmithKline Intellectual Property (No.2) Limited, priority 2016, dated 2022).

biological target: T1, human TRPV4 (Homo sapiens, UniProt Q9HBA0); assay: FLIPR assay for hTRPV4 expressed in BHK cells: inhibition of Agonist Compound-induced calcium signal; format: cell-based; conditions: not given
T1 construct: expressed in transfected cells; host or cells: BHK/AC9 cells transduced with BacMam virus
Protocol: FLIPR Assay for hTRPV4 Expressed in BHK Cells:
TRPV4 channel activation results in an influx of divalent and monovalent cations including calcium. The resulting changes in intracellular calcium were monitored using a calcium specific fluorescent dye Fluo-4 (MDS Analytical Technologies). BHK/AC9 cells transduced with BacMam virus expressing the human TRPV4 gene at a MOI of 78 were plated in a 384 well poly-D lysine coated plate (15,000 cells/well in 50 μL culture medium containing DMEM/F12 with 15 mM HEPES, 10% FBS, 1% Penicillin-Streptomycin and 1% L-glutamine). Cells were incubated for 24 hours at 37° C. and 5% CO2. Culture medium was then aspirated using a Tecan plate-washer and replaced with 20 μL/well of dye loading buffer: HBSS, 500 μM Brilliant Black (MDS Analytical Technologies), and 2 μM Fluo-4 AM. Dye loaded plates were then incubated in the dark at room temperature for 1-1.5 hours.

T1 sequence (Q9HBA0 whole entry): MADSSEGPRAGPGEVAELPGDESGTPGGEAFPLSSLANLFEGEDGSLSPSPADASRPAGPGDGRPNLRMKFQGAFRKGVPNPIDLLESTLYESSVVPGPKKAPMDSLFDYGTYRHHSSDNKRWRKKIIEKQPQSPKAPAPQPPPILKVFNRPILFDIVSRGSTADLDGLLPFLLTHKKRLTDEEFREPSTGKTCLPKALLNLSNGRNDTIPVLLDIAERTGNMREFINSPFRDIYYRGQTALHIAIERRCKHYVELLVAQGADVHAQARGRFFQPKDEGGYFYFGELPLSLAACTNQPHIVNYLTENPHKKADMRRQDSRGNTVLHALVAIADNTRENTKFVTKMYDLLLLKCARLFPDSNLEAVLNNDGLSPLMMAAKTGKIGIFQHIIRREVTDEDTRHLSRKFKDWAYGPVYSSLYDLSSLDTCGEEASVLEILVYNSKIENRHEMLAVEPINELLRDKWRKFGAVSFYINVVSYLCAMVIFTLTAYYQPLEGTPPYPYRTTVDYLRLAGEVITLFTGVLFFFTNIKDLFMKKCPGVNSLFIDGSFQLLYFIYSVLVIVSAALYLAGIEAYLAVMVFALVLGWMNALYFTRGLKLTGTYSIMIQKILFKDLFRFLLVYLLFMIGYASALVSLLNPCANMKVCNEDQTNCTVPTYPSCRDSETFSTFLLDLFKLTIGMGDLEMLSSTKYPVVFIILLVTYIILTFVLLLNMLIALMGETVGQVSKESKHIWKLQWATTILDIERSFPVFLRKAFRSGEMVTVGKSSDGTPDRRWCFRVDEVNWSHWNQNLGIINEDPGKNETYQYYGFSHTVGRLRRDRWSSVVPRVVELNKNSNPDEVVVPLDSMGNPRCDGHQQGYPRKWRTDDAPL

With `C[C@H](O)[C@]1(O)CN(S(=O)(=O)c2ccc(Cl)cn2)C[C@@H]1Oc1ccc(C#N)c(F)c1` [Example 191] the IC50 was 100 to 1000 nM.

same assay, conditions: hTRPV4 in BHK/AC9 cells, FLIPR calcium signal, agonist at EC80; reported as range class; read-out: IC50

`N#Cc1ccc(O[C@H]2CN(S(=O)(=O)c3ccc(Cl)s3)C[C@@]2(O)CO)cc1F` [Example 86, 4-(((3S,4R)-1-((5-chlorothiophen-2-yl)sulfonyl)-4-hydroxy-4-(hydroxymethyl)pyrrolidin-3-yl)oxy)-2-fluorobenzonitrile] and `N#Cc1ccc(O[C@H]2CN(S(=O)(=O)c3cccc(Cl)c3Cl)C[C@@]2(O)CO)cc1F` [Example 94, 4-(((3S,4R)-1-((2,3-dichlorophenyl)sulfonyl)-4-hydroxy-4-(hydroxymethyl)pyrrolidin-3-yl)oxy)-2-fluorobenzonitrile] fall in the same range of IC50: 10 to 100 nM for the first, 10 to 100 nM for the second.

First: N#Cc1ccc(O[C@H]2CN(S(=O)(=O)c3ccc(OC(F)(F)F)cc3Br)C[C@@]2(O)CO)cc1F [Example 65, 4-(((3S,4R)-1-((2-bromo-4-(trifluoromethoxy)phenyl)sulfonyl)-4-hydroxy-4-(hydroxymethyl)pyrrolidin-3-yl)oxy)-2-fluorobenzonitrile]
Second: N#Cc1ccc(O[C@H]2CN(S(=O)(=O)c3ccc(OC(F)(F)F)cc3Cl)C[C@@]2(O)CO)cc1F [Example 66, 4-(((3S,4R)-1-((2-chloro-4-(trifluoromethoxy)phenyl)sulfonyl)-4-hydroxy-4-(hydroxymethyl)pyrrolidin-3-yl)oxy)-2-fluorobenzonitrile]
The IC50 of the first is lower: 0.1 to 10 nM for the first, 10 to 100 nM for the second.

`N#Cc1cc(Cl)ccc1S(=O)(=O)N1C[C@H](Oc2cc(F)c(F)c(F)c2)[C@](O)(CO)C1` [Example 22, 5-chloro-2-(((3R,4S)-3-hydroxy-3-(hydroxymethyl)-4-(3,4,5-trifluorophenoxy)pyrrolidin-1-yl)sulfonyl)benzonitrile] and `N#Cc1cc(C(F)(F)F)ccc1S(=O)(=O)N1C[C@H](Oc2cc(F)c(C#N)c(F)c2)[C@](O)(CO)C1` [Example 20, 4-(((3S,4R)-1-((2-cyano-4-(trifluoromethyl)phenyl)sulfonyl)-4-hydroxy-4-(hydroxymethyl)pyrrolidin-3-yl)oxy)-2,6-difluorobenzonitrile] fall in the same range of IC50: 0.1 to 10 nM for the first, 0.1 to 10 nM for the second.

First: N#Cc1ccc(S(=O)(=O)N2C[C@H](Oc3cc(F)c(C#N)cc3OCC(F)(F)F)[C@](O)(CO)C2)cn1 [Example 174, 5-(((3R,4S)-4-(4-cyano-5-fluoro-2-(2,2,2-trifluoroethoxy)phenoxy)-3-hydroxy-3-(hydroxymethyl)pyrrolidin-1-yl)sulfonyl) picolinonitrile]
Second: N#Cc1ccc(S(=O)(=O)N2C[C@H](Oc3ccc(C#N)cc3OCC(F)(F)F)[C@](O)(CO)C2)cc1 [Example 172, 4-(((3S,4R)-1-((4-cyanophenyl)sulfonyl)-4-hydroxy-4-(hydroxymethyl)pyrrolidin-3-yl)oxy)-3-(2,2,2-trifluoroethoxy)benzonitrile]
The IC50 of the first is lower: 0.1 to 10 nM for the first, 10 to 100 nM for the second.

First: CC[C@@H](O)[C@]1(O)CN(S(=O)(=O)c2ccc(Cl)cn2)C[C@@H]1Oc1ccc(C#N)c(F)c1 [Example 196, 4-(((3S,4R)-1-((5-chloropyridin-2-yl)sulfonyl)-4-hydroxy-4-((R)-1-hydroxypropyl)pyrrolidin-3-yl)oxy)-2-fluorobenzonitrile]
Second: CC(C)C[C@H](O)[C@]1(O)CN(S(=O)(=O)c2ccc(Cl)cn2)C[C@@H]1Oc1ccc(C#N)c(F)c1 [Example 192, 4-(((3S,4R)-1-((5-chloropyridin-2-yl)sulfonyl)-4-hydroxy-4-((S)-1-hydroxy-3-methylbutyl)pyrrolidin-3-yl)oxy)-2-fluorobenzonitrile]
The IC50 of the first is lower: 0.1 to 10 nM for the first, 10 to 100 nM for the second.

`Cn1ncc(Cl)c1S(=O)(=O)N1C[C@H](Oc2ccc(C#N)c(F)c2)[C@](O)(CO)C1` [Example 89, 4-(((3S,4R)-1-((4-chloro-1-methyl-1H-pyrazol-5-yl)sulfonyl)-4-hydroxy-4-(hydroxymethyl)pyrrolidin-3-yl)oxy)-2-fluorobenzonitrile] and `Cn1ncc(Br)c1S(=O)(=O)N1C[C@H](Oc2ccc(C#N)c(F)c2)[C@](O)(CO)C1` [Example 123, 4-(((3S,4R)-1-((4-bromo-1-methyl-1H-pyrazol-5-yl)sulfonyl)-4-hydroxy-4-(hydroxymethyl)pyrrolidin-3-yl)oxy)-2-fluorobenzonitrile] fall in the same range of IC50: 10 to 100 nM for the first, 10 to 100 nM for the second.

`CCCOc1cc(C#N)ccc1O[C@H]1CN(S(=O)(=O)c2ccc(C(F)(F)F)cc2C#N)C[C@@]1(O)CO` [Example 166, 2-(((3R,4S)-4-(4-cyano-2-propoxyphenoxy)-3-hydroxy-3-(hydroxymethyl)pyrrolidin-1-yl)sulfonyl)-5-(trifluoromethyl)benzonitrile] and `CC(C)Oc1cc(C#N)ccc1O[C@H]1CN(S(=O)(=O)c2ccc(C(F)(F)F)cc2C#N)C[C@@]1(O)CO` [Example 44, 2-(((3R,4S)-4-(4-cyano-2-isopropoxy-phenoxy)-3-hydroxy-3-(hydroxymethyl)pyrrolidin-1-yl)sulfonyl)-5-(trifluoromethyl)benzonitrile] fall in the same range of IC50: 0.1 to 10 nM for the first, 0.1 to 10 nM for the second.

First: C#Cc1ccccc1S(=O)(=O)N1C[C@H](Oc2ccc(C#N)c(F)c2)[C@](O)(CO)C1 [Example 93, 4-(((3S,4R)-1-((2-ethynylphenyl)sulfonyl)-4-hydroxy-4-(hydroxymethyl)pyrrolidin-3-yl)oxy)-2-fluorobenzonitrile]
Second: N#Cc1ccc(O[C@H]2CN(S(=O)(=O)c3ccccc3C#N)C[C@@]2(O)CO)cc1F [Example 61, 4-(((3S,4R)-1-((2-cyanophenyl)sulfonyl)-4-hydroxy-4-(hydroxymethyl)pyrrolidin-3-yl)oxy)-2-fluorobenzonitrile]
The IC50 of the first is higher: 10 to 100 nM for the first, 0.1 to 10 nM for the second. The second is the more potent here.

`N#Cc1ccc(O[C@H]2CN(S(=O)(=O)c3ccc(I)cc3)C[C@@]2(O)CO)cc1F` [Example 103, 2-fluoro-4-(((3S,4R)-4-hydroxy-4-(hydroxymethyl)-1-((4-iodophenyl)sulfonyl)pyrrolidin-3-yl)oxy)benzonitrile] and `COc1ccc(S(=O)(=O)N2C[C@H](Oc3ccc(C#N)c(F)c3)[C@](O)(CO)C2)c(Br)c1` [Example 64, 4-(((3S,4R)-1-((2-bromo-4-methoxyphenyl)sulfonyl)-4-hydroxy-4-(hydroxymethyl)pyrrolidin-3-yl)oxy)-2-fluorobenzonitrile] fall in the same range of IC50: 10 to 100 nM for the first, 10 to 100 nM for the second.

`C[C@H](O)[C@]1(O)CN(S(=O)(=O)c2ccc(F)cc2C#N)C[C@@H]1Oc1ccc(C#N)c(F)c1` [Example 201, 4-(((3S,4R)-1-((2-cyano-4-fluorophenyl)sulfonyl)-4-hydroxy-4-((S)-1-hydroxyethyl)pyrrolidin-3-yl)oxy)-2-fluorobenzonitrile] and `N#Cc1ccc(O[C@H]2CN(S(=O)(=O)c3ccc(Br)cc3C#N)C[C@@]2(O)CO)cc1F` [Example 67, 4-(((3S,4R)-1-((4-bromo-2-cyanophenyl)sulfonyl)-4-hydroxy-4-(hydroxymethyl)pyrrolidin-3-yl)oxy)-2-fluorobenzonitrile] fall in the same range of IC50: 0.1 to 10 nM for the first, 0.1 to 10 nM for the second.

First: Cc1nc(C#N)ccc1S(=O)(=O)N1C[C@H](Oc2ccc(C#N)c(F)c2)[C@](O)(CO)C1 [Example 131, 5-(((3R,4S)-4-(4-cyano-3-fluorophenoxy)-3-hydroxy-3-(hydroxymethyl)pyrrolidin-1-yl)sulfonyl)-6-methylpicolinonitrile]
Second: C#Cc1ccc(S(=O)(=O)N2C[C@H](Oc3ccc(C#N)c(F)c3)[C@](O)(CO)C2)c(C#N)c1 [Example 220, 4-(((3S,4R)-1-((2-cyano-4-ethynylphenyl)sulfonyl)-4-hydroxy-4-(hydroxymethyl)pyrrolidin-3-yl)oxy)-2-fluorobenzonitrile]
The IC50 of the first is higher: 10 to 100 nM for the first, 0.1 to 10 nM for the second.

`N#Cc1cc(C(F)(F)F)ccc1S(=O)(=O)N1C[C@H](Oc2ccc3nonc3c2)[C@](O)(CO)C1` [Example 7, 2-(((3R,4S)-4-(benzo[c][1,2,5]oxadiazol-5-yloxy)-3-hydroxy-3-(hydroxymethyl)pyrrolidin-1-yl)sulfonyl)-5-(trifluoromethyl)benzonitrile] and `C#Cc1cc(C(F)(F)F)ccc1S(=O)(=O)N1C[C@H](Oc2ccc(C#N)c(F)c2)[C@](O)(CO)C1` [Example 225, 4-(((3S,4R)-1-((2-ethynyl-4-(trifluoromethyl)phenyl)sulfonyl)-4-hydroxy-4-(hydroxymethyl)pyrrolidin-3-yl)oxy)-2-fluorobenzonitrile] fall in the same range of IC50: 0.1 to 10 nM for the first, 0.1 to 10 nM for the second.

`N#Cc1ccc(O[C@H]2CN(S(=O)(=O)c3ccc(Br)cc3C(F)(F)F)C[C@@]2(O)CO)cc1F` [Example 121, 4-(((3S,4R)-1-((4-bromo-2-(trifluoromethyl)phenyl)sulfonyl)-4-hydroxy-4-(hydroxymethyl)pyrrolidin-3-yl)oxy)-2-fluorobenzonitrile] and `N#Cc1ccc2cc(O[C@H]3CN(S(=O)(=O)c4ccc(C(F)(F)F)cc4C#N)C[C@@]3(O)CO)ccc2c1` [Example 18, 6-(((3S,4R)-1-((2-cyano-4-(trifluoromethyl)phenyl)sulfonyl)-4-hydroxy-4-(hydroxymethyl)pyrrolidin-3-yl)oxy)-2-naphthonitrile] fall in the same range of IC50: 10 to 100 nM for the first, 10 to 100 nM for the second.

`C[C@@H](O)[C@]1(O)CN(S(=O)(=O)c2ccc(OC(F)(F)F)nc2)C[C@@H]1Oc1ccc(C#N)c(F)c1` [Example 208, 2-fluoro-4-(((3S,4R)-4-hydroxy-4-((R)-1-hydroxyethyl)-1-((6-(trifluoromethoxy)pyridin-3-yl)sulfonyl)pyrrolidin-3-yl)oxy)benzonitrile] and `C[C@@H](O)[C@]1(O)CN(S(=O)(=O)c2ccc(C(F)(F)F)nc2)C[C@@H]1Oc1ccc(C#N)c(F)c1` [Example 206, 2-fluoro-4-(((3S,4R)-4-hydroxy-4-((R)-1-hydroxyethyl)-1-((6-(trifluoromethyl)pyridin-3-yl)sulfonyl)pyrrolidin-3-yl)oxy)benzonitrile] fall in the same range of IC50: 10 to 100 nM for the first, 10 to 100 nM for the second.
